Series [1] is described as follows: Sodium Tocopheryl Phosphate binding to and release from calcium phosphate particles (UV 286 nm). The format is physicochemical. How it is done: • Calcium phosphate particles • Sodium Tocopheryl Phosphate (TPNa), Showa Denko KK • Ethanol, Fisher Scientific, Product No. AC615090020 Methods: • i. 20 mg of TPNa was dissolved in 40 ml of water by gently mixing (0.5 mg/ml). • ii. 3 g of calcium phosphate particles was mixed with 30 ml of TPNa solution at 0.5 mg/ml, and mixed for 30 min. • iii. The binding suspension was centrifuged at 2000×g for 10 min. The supernatant was transferred to new tube, and centrifuge again at 2000×g for 10 min to clarify. The final supernatant was analyzed with an UV spectrophotometer at 286 nm to quantitate free TPNa and calculate the binding. Approximately 100% of TPNa in the binding suspension was attached to calcium phosphate particles. • iv. The pellet of TPNa calcium phosphate complex was re-suspended in 60% ethanol to release the bound TPNa. • v. The release suspension in 60% ethanol was centrifuged at 2000×g for 10 min. The supernatant was analyzed with an UV spectrophotometer at 286 nm to quantitate free TPNa released.

A short description of series [2]: Franz cell transdermal delivery through pig skin. The format is in vitro ADME. The note with it: for penetration through skin (riboflavin metabolite in receptor fluid): 8 and 16 hours.
Procedure: Controlled Slow Release of Active Agents by Franz Cell • Purpose: The purpose of this study was to detect riboflavin from riboflavin attached to calcium phosphate particles. Methods: • Circular 6 cm^2 discs of full-thickness pig skin were cut from a larger abdominal specimen. Fat was removed from the dermis-side by scissors and the skin was stored at −20° C. until use. The skin was affixed between the two compartments of the glass diffusion cell (Laboratory Glass Apparatus, Model #LG-1084-LPCT). This allowed an exposed skin area of 5 cm^2 over a receptor compartment volume of 4.5 ml. The diffusion cell was maintained at 37° C.
Penetration Conditions • Topical application intervals were 8 and 16 hrs. The cells were covered with parafilm and shielded from light by aluminum wrap. A receptor fluid of phosphate buffered saline (PBS) was spun at 60 rpm.
Applied Formulations • Riboflavin monophosphate-calcium phosphate particles were prepared to deliver 0.35-1.15 mg riboflavin (20-38% suspensions). • Riboflavin monophosphate in PBS was prepared at 1.5 mg/mL to deliver 0.3-0.45 mg riboflavin. • Formulations were applied by pipette in volumes of 50-100 μl. Riboflavin-calcium phosphate complex applications were allowed to air dry and then equal volume of 0.5 M sodium acetate buffer was pipetted onto the application site. […]
Sample Collection • The skin surface, while still retained in the diffusion cell, was washed twice with 1 mL PBS each time. The skin was removed from diffusion cell and dried and analyzed.
Sample Analysis • Washes and Receptor fluid: The approximate volume of the fluids was determined. […] The supernatant was then removed and analyzed by UV spectrometer. If the UV absorbance was saturated (over >2.0), the samples were diluted with water. The UV absorbance value at 370 nm was recorded. • Skin: The skin was minced and mixed with 5 ml of 10% trichloracetic acid solution. […] If the UV absorbance was saturated (over >2.0), samples were diluted with water. The maximum UV absorbance value at 370 nm was recorded.
The nature of series [3]: Optimum pH for producing active agent-calcium phosphate complexes. The format is physicochemical. From the text:
In the following tables, the specific solvent systems are examples of solvent systems that may be used.

Series [4] can be described thus: Influence of pH on binding of Salicylic acid to calcium phosphate particles (UV 297 nm). The format is physicochemical. How it is done:
• Calcium phosphate particles • Salicylic acid, Fisher Scientific, Part No. A277-500 Methods: • i. 23.2 mg of Salicylic acid was dissolved in 1 ml of ethanol. • ii. 4 g of calcium phosphate particles were suspended in 39.8 ml of water and the pH was adjusted close to the targeted pH with HCl. • iii. 0.2 ml of Salicylic acid solution (23.2 mg/ml) was mixed in the suspension of calcium phosphate particles. • iv. The pH was adjusted to each of the target pH values (11.36, 8.34, 7.47, 7.07, 5.99) with HCl. • v. At each pH, a 4.8 ml sample was taken from the suspension. All the samples were centrifuged separately at 2000×g for 10 min. • vi. The absorbance of supernatant was measured at 297 nm (the detection wavelength for Salicylic acid) by UV spectrophotometer. • vii. […]

A short description of series [5]: Argireline binding to calcium phosphate particles with or without sodium lauryl sulfate pretreatment. The series is classed as physicochemical. How it is done: • Argireline to calcium phosphate particles was pretreated with sodium lauryl sulfate Materials: • Calcium phosphate particles • Argireline, (Acetyl Hexapeptide-8), Lipotec S.A. • Sodium lauryl sulfate (SLS), Colonial Chemical, Inc. Methods: • i. Argireline was dissolved in water as a 10 mg/ml solution. • ii. Calcium phosphate particles were mixed with 10 ml of 0.1% SLS for 5 min. […] The pellet was re-suspended in 20 ml water, centrifuged at 2000×g for 10 min, and the washing supernatant was discarded. The washing step was repeated twice. The water contained in the pellet was determined. The final pellet was used in the binding study. • iii. Calcium phosphate particles (SLS treated or no SLS treatment) were mixed with water. HCl (or NaOH) was added to adjust the pH of Calcium phosphate particles suspension to targeted pH including neutral and pH˜10. • iv. Argireline stock at 10 mg/ml was added to each binding suspensions to be a final concentration of 0.5 mg/ml. After the suspension was mixed for 30 min, the final pH was measured. • v. The binding suspensions were centrifuged at 2000×g for 10 min in the bench top centrifuge. The supernatants were analyzed with Refractive Index detector connected to the Shimadzu HPLC 20A system to quantify the free Argireline in the solution. A size-exclusion HPLC method was developed to quantify Argireline in the supernatants of the binding mixtures. […] The mobile phase was 100% water, and eluted at a rate of 1 ml/min. The eluent was monitored at 205 nm or by a refractive index detector (Shimadzu, Model No. RID-10A). Argireline was observed as a major peak in the chromatogram with retention time of about 14 min. The quantification of Argireline was achieved by external standard calibration. • vi. The Argireline bound was then calculated by subtracting the amount of Argireline detected in the supernatant from the total initial amount in the binding suspension.

The nature of series [6]: Adapalene saturated solutions in ethanol and DMSO. The series is classed as physicochemical. How it is done:
(§1) • Calcium phosphate particles • Adapalene, Sekhsaria Chemicals Limited, India • DMSO, Fisher Scientific, Product No. D159-4 • Ethanol, Fisher Scientific, Product No. AC61511-0010 Methods: • i. […] The suspensions were mixed for 30 min, and centrifuged at 2000×g for 10 min in a bench top centrifuge. • iv. The absorbance of supernatants were measured at 319 nm (the detection wavelength for Adapalene) by UV spectrophotometer. • v. […]

A short description of series [7]: Influence of solvent on binding of Adapalene to calcium phosphate particles (UV 319 nm). The format is physicochemical. How it is done:
as §1

Series [8] is described as follows: Stability (activity) of ascorbic acid at 50° C. with and without calcium phosphate particles. The format is physicochemical. As to conditions: for activity of ascorbic acid, 2 um: bound to 2 μm calcium phosphate particles; for activity of ascorbic acid, Control: without calcium phosphate particles. How it is done:
11.9 mg of ascorbic acid was dissolved in 30 ml of water. 2 g of 2 μm calcium phosphate particles were suspended in 19.5 ml of water and the pH was adjusted to pH 7.14 with HCl. 0.5 ml of ascorbic acid solution (0.40 mg/ml) was mixed in the suspension of calcium phosphate particles, which reduced the pH to 7.05. The suspension (pH 7.05) of calcium phosphate particles including 10 μg/ml of ascorbic acid was incubated at 50° C. for 0.5 to 5 hours. The heat-denaturation of ascorbic acid was terminated by cooling the suspension in an ice bath for 15 minutes. In order to release bound ascorbic acid from calcium phosphate particles to measure the stabilization effect, the pH of each suspension was adjusted to pH 5 with HCl and centrifuged at 3,000 rpm for 10 minutes. The supernatant obtained was measured at 265 nm. As a control, a 10 μg/ml of ascorbic acid solution was also incubated and measured by the same procedures without calcium phosphate particles. The activity of ascorbic acid was calculated by the following formula: The activity of ascorbic acid (%)=(A265nm of the supernatant after incubation/A265nm of the ascorbic acid before incubation)×100 The same procedures were repeated with 10 μm calcium phosphate particles. b. Results

Series [9] can be described thus: Tape-stripping analysis of topical application of active-calcium phosphate complexes. The series is classed as in vivo. As to conditions: STAY C50-calcium phosphate particle formulation, human forearm, ten tape strips. How it is done:
The purpose of this study was to detect the distribution of actives in the stratum corneum following topical application of the active-calcium phosphate particles • Method: The distribution of STAY C50 within the stratum corneum was assessed by serial tape stripping of the skin to which a STAY C50-calcium phosphate particle formulation was applied. An application site on the forearm of a human subject was marked and 200 μl of the formulation spread by spatula. The site was allowed to dry for 10 minutes and then followed by ten pre-weighed tape stripping using strips of (3 in^2) applied to the application site. STAY C50 was extracted from the tape strips by sonicating the samples in water for 30 minutes and analyzing the samples by HPLC. […] An application site on the forearm of a human subject was marked and 200 μl of the formulation spread by spatula. The site was allowed to dry for 10 minutes and then followed by ten pre-weighed tape stripping using strips of (3 in^2) applied to the application site. Lysozyme was extracted from the tape strips by sonicating the samples in water for 30 minutes and analyzing the samples by HPLC. Lysozyme was detected to a depth of 6 tape strips (FIG. 10). 5. Controlled Slow Release of Active Agents by Franz Cell • Purpose: The purpose of this study was to detect riboflavin from riboflavin attached to calcium phosphate particles. […]

The values below come from US10350168B2, “Dermal delivery compositions comprising active agent-calcium phosphate particle complexes and methods of using the same” (Laboratory Skin Care, Inc., priority 2009, dated 2019).

Values joined by “and” are separate entries in the source; they are usually repeats but may differ in a detail not shown here. Equal values may be shown once.

Regarding `Cc1c(C)c2c(c(C)c1OP(=O)([O-])[O-])CCC(C)(CCCC(C)CCCC(C)CCCC(C)C)O2.[Na+].[Na+]` (stereo not drawn) [TPNa, Sodium Tocopheryl Phosphate], in [1] (0.5 mg/ml TPNa in water), the “TPNa in the binding suspension attached to calcium phosphate particles” value is listed as “Approximately 100%”. In [1] (released in 60% ethanol), the “integrity of released TPNa (UV spectroscopy)” value was “identical to an unbound control”.

Riboflavin monophosphate: the “release rate of the active versus aqueous solution” value in series [2] (calcium phosphate particle complex) was “slower release of the active”. The “penetration through skin (riboflavin metabolite in receptor fluid)” value in [2] (from aqueous solution (PBS)) and in [2] (from calcium phosphate particle complex) was “penetrated through skin” in each case.

For the molecule `O=C(O)c1ccccc1O` [Salicylic acid], the “Optimum pH” value in series [3] (Loading Solvent Ethanol/water) is 4.03-7.90. The “Salicylic acid Bound” value in [4] (pH 5.99) stood at 0 µg/g; in series [4] (pH 7.07), 23.8 µg/g; in series [4] (pH 7.47) it was 97.5 µg/g; in series [4] (pH 8.34), 660.4 µg/g; in [4] (pH 11.36) it was 1141.14 µg/g.

For `Cc1c(C)c2c(c(C)c1OP(=O)([O-])OC1=C(O)[C@@H]([C@@H](O)CO)OC1=O)CC[C@@](C)(CCC[C@H](C)CCC[C@H](C)CCCC(C)C)O2.[K+]` (racemic) [Sepivital, dl-a-tocopheryl 2 L ascorbyl phosphate], in series [3] (Loading Solvent Water), the “Optimum pH” value is recorded as 7.

Acetyl Hexapeptide-8 [Argireline]: the Argireline bound was 0.09 mg/g in [5] (No pretreatment, pH 7.39); 0.05 mg/g in [5] (No pretreatment, pH 10.46); 1.19 mg/g in series [5] (SLS treated particles, pH 7.85); 2.15 mg/g in [5] (SLS treated particles, pH 10.10). Further, the “Optimum pH” value in [3] (Loading Solvent Water) is 6.7-7.8 and 7.8 and 6.4.

Consider `COc1ccc(-c2ccc3cc(C(=O)O)ccc3c2)cc1C12CC3CC(CC(C3)C1)C2` [Adapalene], for which the “Optimum pH” value in series [3] (Loading Solvent DMSO) is 7; in series [3] (Loading Solvent Ethanol), 11 and 7. In addition, the results for the saturated solution concentration in [6] (in DMSO) and in series [6] (in ethanol) were 20.65 mg/mL and 0.087 mg/mL, respectively. Moreover, the “Binding capacity of Adapalene to calcium phosphate particles” value in series [7] (in DMSO) was determined as 12.55 mg/g; in series [7] (in ethanol), 0.78 mg/g.

On to `O=C1O[C@H]([C@@H](O)CO)C(O)=C1O` [Ascorbic acid], for which the “Optimum pH” value in [3] (Loading Solvent Water) was greater than 8.12. Besides, the “activity of ascorbic acid, 2 um” value in [8] (0 hrs) worked out at 100%; in series [8] (0.5 hrs), 85%; in series [8] (2 hrs), 59%; in series [8] (3 hrs), 48%; in [8] (5 hrs), 35%. Besides, the “activity of ascorbic acid, Control” value was 100% in series [8] (0 hrs), 36% in [8] (0.5 hrs), 18% in [8] (2 hrs) and 0% in series [8] (5 hrs).

For the molecule `O=C1O[C@H]([C@@H](O)CO)C([O-])=C1OP(=O)([O-])[O-].[Na+].[Na+].[Na+]` [STAY-C50, Sodium Ascorbyl Phosphate], the “delivery depth in stratum corneum” value in [9] is listed as 10th layer of stratum corneum.

On to Hyaluronic acid Sodium salt, for which, in series [3] (Loading Solvent Water), the “Optimum pH” value came out at 7.

On to `Oc1ccc(C=Cc2cc(O)cc(O)c2)cc1` [Resveratrol], for which the “Optimum pH” value in [3] (Loading Solvent Ethanol/water) is given as 10.
